Legend:
[1] = tested on: Zucker diabetic fatty (ZDF, fa/fa) rats; experiment: Cataract formation in Zucker diabetic fatty rats fed genistein in chow for six months; format: in vivo, rat
Protocol: (§1) Thirty pair of litter mates of Zucker rats, i.e., thirty male retired breeder Zucker diabetic fatty (ZDF, fa/fa) rats and thirty male retired breeder lean Zucker (fa/+) rats, were obtained (Genetic Models, Inc., Indianapolis, Ind.). The animals were treated in accordance with The Association for Research in Vision and Ophthalmology (ARVO) Statement for the Use of Animals in Ophthalmic and Vision Research. The average blood glucose value was more than 500 mg/dl for the Zucker diabetic fatty rats and 120 mg/dl for the control lean rats as measured by glucose oxidase assay at the time of death (Danis et al. (1993), supra).
(§2) Zucker diabetic fatty rats were divided into four groups and fed Purina 5008 rat chow containing varying concentrations of genistein: 0 mg/kg chow, 75 mg/kg chow, 150 mg/kg chow and 300 mg/kg chow. Cataract formation was assessed after six months of treatment. The extent of cataract formation was determined after dilating pupils with phenylephrine (2.5%) and Tropicamide (1%) in rats under general anesthesia resulting from intraperitoneal injections of ketamine (40 mg/kg) and xylazine (4 mg/kg). Disease progression was categorized as total cataract, partial cataract (mainly minimal posterior subcapsular cataract), or no cataract.

[2] = tested on: lean Zucker (fa/+) rats; experiment: Cataract formation in lean Zucker control rats fed genistein in chow; format: in vivo, rat; details: lean Zucker rats, 0, 75, 150 or 300 mg Genistein/kg chow, six months
Protocol: as §1, §2
Zucker lean rats were also divided into 4 groups and fed Purina 5008 chow containing 0, 75, 150 or 300 mg Genistein/ kg chow. […]

[3] = tested on: retina; experiment: Retinal toxicity by electroretinography after oral genistein; format: in vivo; details: 75 mg/kg/day to 300 mg/kg/day, six months, Zucker diabetic fatty rats
Excerpt: (§3) An advantage of genistein is that it is very safe and efficacious. […] Also, no effect of orally administered genistein was found with respect to the weight of the ovaries and the uterus in female rats.

[4] = Food intake and body weight after oral genistein; format: in vivo; details: oral administration, male and female rats
Excerpt: as §3

[5] = Weight of the ovaries and the uterus after oral genistein; format: in vivo; details: oral administration, female rats
Excerpt: as §3

## O=c1c(-c2ccc(O)cc2)coc2cc(O)cc(O)c12 [genistein, 5,7-dihydroxy-3-(4-hydroxyphenyl)-4H-1-benzopyran-4-one]
[1]; 75 mg/kg chow, n = 7
  Partial Cataract (number of rats): 3
  Total Cataract (number of rats): 4
[1]; 150 mg/kg chow, n = 8
  No Cataract (number of rats): 2
  Partial Cataract (number of rats): 2
  Total Cataract (number of rats): 4
[1]; 300 mg/kg chow, n = 8
  Partial Cataract (number of rats): 3
  Total Cataract (number of rats): 5
[1]; 75-300 mg/kg chow
  Inhibition of cataract formation: significantly inhibits cataract formation
[2]
  Cataracts in lean control rats: not present
[3]
  Toxicity to the retina as measured by electroretinography: nontoxic to the retina
[4]
  Effect on body weight: no effect
  Effect on food intake: no effect
[5]
  Effect on weight of the ovaries and the uterus: no effect

Source: patent publication US6399655B1, “Method for the prophylactic treatment of cataracts” (Johns Hopkins University, School of Medicine, priority 1998, dated 2002)
